Reference: ChEMBL document CHEMBL1201862, “PubChem BioAssay data set” (2004)
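Five concentrations, 48 hours, 96-well plates. GI50 is the concentration that inhibits growth by half.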 The source made the active and inactive calls. Rule as the data show it: active = GI50 up to about 1.1 µM and inactive = higher.

How the values were obtained:
Assay in all cases: NCI tumour cell line growth inhibition, 48 h
UACC-62 = system: UACC-62
OVCAR-8 = system: OVCAR-8
UO-31 = system: UO-31
NCI-H23 = system: NCI-H23
PC-3 = system: PC-3
HT-29 = system: HT-29
SNB-19 = system: SNB-19
SR = system: SR
NCI-H226 = system: NCI-H226
SK-OV-3 = system: SK-OV-3
SK-MEL-28 = system: SK-MEL-28
HCT-116 = system: HCT-116
T47D = system: T47D
786-0 = system: 786-0
Hs-578T = system: Hs-578T
OVCAR-3 = system: OVCAR-3
NCI/ADR-RES = system: NCI/ADR-RES
SF-295 = system: SF-295
NCI-H460 = system: NCI-H460

SMILES	GI50 (UACC-62)	GI50 (OVCAR-8)	GI50 (UO-31)	GI50 (NCI-H23)	GI50 (PC-3)	GI50 (HT-29)	GI50 (SNB-19)	GI50 (SR)	GI50 (NCI-H226)	GI50 (SK-OV-3)	GI50 (SK-MEL-28)	GI50 (HCT-116)	GI50 (T47D)	GI50 (786-0)	GI50 (Hs-578T)	GI50 (OVCAR-3)	GI50 (NCI/ADR-RES)	GI50 (SF-295)	GI50 (NCI-H460)
O=C1OC(C2Cc3ccc4c(c3C2=O)CCC4)c2ccccc21 (stereo not drawn)	42.2 µM (inactive)	56.9 µM (inactive)	45.4 µM (inactive)	55.2 µM (inactive)	30.5 µM (inactive)	52.8 µM (inactive)	52.4 µM (inactive)	38.8 µM (inactive)	26.1 µM (inactive)	> 100 µM (inactive)	67.1 µM (inactive)	45.6 µM (inactive)	54.6 µM (inactive)	40.7 µM (inactive)	36.1 µM (inactive)	28.4 µM (inactive)	48.2 µM (inactive)	59.6 µM (inactive)	50.9 µM (inactive)
CCOC(=O)C(NS(=O)(=O)c1ccccc1)(C(F)(F)F)P(=O)(OCC(C)C)OCC(C)C (stereo not drawn)	> 100 µM (inactive)	> 100 µM (inactive)	98.2 µM (inactive)	> 100 µM (inactive)	> 100 µM (inactive)	> 100 µM (inactive)	> 100 µM (inactive)	> 100 µM (inactive)	> 100 µM (inactive)	> 100 µM (inactive)	> 100 µM (inactive)	> 100 µM (inactive)	> 100 µM (inactive)	> 100 µM (inactive)	> 100 µM (inactive)	> 100 µM (inactive)	> 100 µM (inactive)	> 100 µM (inactive)	> 100 µM (inactive)
O=C1Cc2c(-c3ccccc3)cc(-c3ccc(Cl)cc3)nc2-c2ccccc2N1	5.57 µM (inactive)	2.37 µM (inactive)	2.05 µM (inactive)	4.03 µM (inactive)	10.1 µM (inactive)	3.66 µM (inactive)	1.94 µM (inactive)	10 µM (inactive)	3.07 µM (inactive)	2.39 µM (inactive)	2.94 µM (inactive)	1.98 µM (inactive)	3.23 µM (inactive)	1.73 µM (inactive)	2.88 µM (inactive)	8.73 µM (inactive)	3.14 µM (inactive)	5.89 µM (inactive)	3.21 µM (inactive)
CO[C@H]1[C@@H](O)[C@@H](O)O[C@@H](O[C@H]2CC[C@@]3(C)[C@H](CC[C@@H]4[C@@H]3[C@H](O)C[C@]3(C)[C@@H](C5=CC(=O)OC5)CC[C@]43O)C2)[C@@H]1O	0.355 µM (active)	0.33 µM (active)	0.163 µM (active)	0.113 µM (active)	0.283 µM (active)	0.435 µM (active)	0.692 µM (active)	0.21 µM (active)	0.69 µM (active)	0.248 µM (active)	0.622 µM (active)	0.178 µM (active)	0.362 µM (active)	0.296 µM (active)	0.407 µM (active)	0.112 µM (active)	0.222 µM (active)	0.141 µM (active)	0.0895 µM (active)
CCCCCCCCCCCCCCCCNc1nc(=O)n(C2CC(O)C(CO)O2)cc1F (stereo not drawn)	10.7 µM (inactive)	1.82 µM (inactive)	1.4 µM (inactive)	4.85 µM (inactive)	3.93 µM (inactive)	9.84 µM (inactive)	13.7 µM (inactive)	4.01 µM (inactive)	1.28 µM (inactive)	13.5 µM (inactive)	12.7 µM (inactive)	8.26 µM (inactive)	11.7 µM (inactive)	2.88 µM (inactive)	17.4 µM (inactive)	13.9 µM (inactive)	2.86 µM (inactive)	16.5 µM (inactive)	10.7 µM (inactive)
CCOC(=O)c1cc2c(OC(C)=O)ccc(OC(C)=O)c2s1	1.82 µM (inactive)	1.66 µM (inactive)	1.43 µM (inactive)	1.99 µM (inactive)	1.96 µM (inactive)	3.02 µM (inactive)	7.03 µM (inactive)	3.27 µM (inactive)	12.9 µM (inactive)	9.4 µM (inactive)	2.15 µM (inactive)	2.81 µM (inactive)	1.48 µM (inactive)	2.49 µM (inactive)	1.69 µM (inactive)	1.61 µM (inactive)	2.2 µM (inactive)	6.9 µM (inactive)	5.65 µM (inactive)
COc1ccc(/C=C2\C[C@H]3[C@@H]4CC=C5C[C@@H](OC(C)=O)CC[C@]5(C)[C@H]4CC[C@]3(C)\C2=N\O)cc1OC	30.5 µM (inactive)	5.71 µM (inactive)	4.2 µM (inactive)	29.2 µM (inactive)	18.8 µM (inactive)	5.74 µM (inactive)	25 µM (inactive)	9.33 µM (inactive)	9.2 µM (inactive)	68.1 µM (inactive)	> 100 µM (inactive)	8.05 µM (inactive)	5.38 µM (inactive)	8.87 µM (inactive)	> 100 µM (inactive)	24.3 µM (inactive)	53.5 µM (inactive)	6.65 µM (inactive)	7.03 µM (inactive)
COC(=O)[C@H]1[C@H](OC(=O)[C@@H](OC)c2ccccc2)ON2CC[C@@H](OC(=O)c3ccccc3)[C@H]12	10.7 µM (inactive)	61.4 µM (inactive)	> 100 µM (inactive)	> 100 µM (inactive)	> 100 µM (inactive)	51.3 µM (inactive)	> 100 µM (inactive)	> 100 µM (inactive)	> 100 µM (inactive)	> 100 µM (inactive)	> 100 µM (inactive)	> 100 µM (inactive)	91.2 µM (inactive)	43 µM (inactive)	57.9 µM (inactive)		> 100 µM (inactive)	39.4 µM (inactive)	> 100 µM (inactive)
O=C1c2ccccc2-c2c1c1ccccc1c(=O)n2Cc1ccco1	> 100 µM (inactive)	> 100 µM (inactive)	> 100 µM (inactive)	> 100 µM (inactive)	> 100 µM (inactive)	> 100 µM (inactive)		> 100 µM (inactive)	> 100 µM (inactive)	> 100 µM (inactive)	> 100 µM (inactive)	> 100 µM (inactive)	> 100 µM (inactive)	> 100 µM (inactive)	54.6 µM (inactive)	> 100 µM (inactive)	> 100 µM (inactive)	> 100 µM (inactive)	
CCOC(=O)C(NC(=O)c1cccc(Cl)c1)(Nc1ccc(S(=O)(=O)Nc2cc(C)nc(C)n2)cc1)C(F)(F)F (stereo not drawn)		> 100 µM (inactive)	> 100 µM (inactive)	> 100 µM (inactive)	> 100 µM (inactive)	> 100 µM (inactive)	> 100 µM (inactive)	68.7 µM (inactive)	> 100 µM (inactive)	> 100 µM (inactive)	> 100 µM (inactive)	> 100 µM (inactive)	> 100 µM (inactive)	> 100 µM (inactive)	> 100 µM (inactive)	> 100 µM (inactive)	> 100 µM (inactive)	> 100 µM (inactive)	> 100 µM (inactive)
COc1ccc(CNc2nc(NCc3ccc(OC)cc3)nc(NC3CCCCC3)n2)cc1	2 µM (inactive)	2.6 µM (inactive)	4.32 µM (inactive)		3.21 µM (inactive)	3.46 µM (inactive)	2.07 µM (inactive)	3.29 µM (inactive)	1.93 µM (inactive)	3.87 µM (inactive)	> 100 µM (inactive)	3.12 µM (inactive)	3.51 µM (inactive)	2.81 µM (inactive)	1.77 µM (inactive)	2.2 µM (inactive)	1.8 µM (inactive)	1.34 µM (inactive)	2.7 µM (inactive)
CCOP(=O)(OCC)C(C)(C)N(C)/C(F)=N/C(F)(F)F	> 100 µM (inactive)	> 100 µM (inactive)	> 100 µM (inactive)	> 100 µM (inactive)	> 100 µM (inactive)	> 100 µM (inactive)		> 100 µM (inactive)	> 100 µM (inactive)	> 100 µM (inactive)	> 100 µM (inactive)	> 100 µM (inactive)	> 100 µM (inactive)	> 100 µM (inactive)	> 100 µM (inactive)	> 100 µM (inactive)	> 100 µM (inactive)	> 100 µM (inactive)	> 100 µM (inactive)
O=c1cc(-c2ccc(O)cc2)n(C2CC2)c2ccccc12	3.91 µM (inactive)	5.31 µM (inactive)	4.02 µM (inactive)	8.73 µM (inactive)	9.44 µM (inactive)	1.57 µM (inactive)	5.08 µM (inactive)	7.43 µM (inactive)	2.67 µM (inactive)	9.08 µM (inactive)		2.75 µM (inactive)	3.96 µM (inactive)	4.06 µM (inactive)	5.41 µM (inactive)	4.23 µM (inactive)	11.9 µM (inactive)	3.46 µM (inactive)	3.76 µM (inactive)
CC(=O)O[C@@H]1CC2[C@@H](CCC3Cc4nc5c(nc4C[C@@]32C)CC2CC[C@@H]3C(CC[C@@]4(C)C3CC[C@@H]4C(C)CCCC(C)C)[C@@]2(C)C5)C2C[C@@H]3OC4(CCC(C)CO4)C(C)[C@@H]3[C@]21C (stereo partly drawn)	2.01 µM (inactive)	> 100 µM (inactive)		> 100 µM (inactive)	> 100 µM (inactive)	> 100 µM (inactive)	65.2 µM (inactive)	> 100 µM (inactive)	23.4 µM (inactive)	3.04 µM (inactive)	> 100 µM (inactive)	> 100 µM (inactive)	> 100 µM (inactive)	53.7 µM (inactive)	21.1 µM (inactive)	> 100 µM (inactive)	30.3 µM (inactive)	53.8 µM (inactive)	> 100 µM (inactive)
